The compounds below were run on E. coli ATCC25922 (assay: Antibacterial activity in combination with minocycline (growth inhibition)). Conditions: Escherichia coli, ATCC25922, compound at 25 μM; minocycline 0.25 μg/mL; OD625 23 h minus 1 h; read-out: residual growth of E. coli ATCC25922 (% of uninhibited control) with minocycline.
Format: cell-based
Method: Antibacterial activity in combination with minocycline or with linezolid
Inhibition of growth was measured with E. coli ATCC25922 and P. aeruginosa PAO1 in a 96-well plate format. Cation-adjusted Müller-Hinton broth (caMHB) was inoculated with an overnight culture and incubated at 37° C. on a shaker until OD625 reached 0.6 to 0.7. Density was adjusted to OD600=0.5 by addition of caMHB. 35 μL of the suspension were diluted to 35 mL with caMHB and supplemented with minocycline at the subinhibitory doses of 0.25 μg/mL for E. coli and 8 μg/mL for P. aeruginosa or with linezolid at the subinhibitory dose of 128 μg/mL for E. coli and P. aeruginosa. Each well contained 1 μL of test compound in 100 μL caMHB with minocycline or with linezolid.
Plates were incubated at 37° C. on a plate shaker. OD625 was measured at 1 h, 6 h, and at 23 h.
The difference between OD at 23 h and at 1 h was taken as measure for cell density and compared to controls without inhibitor (i.e. uninhibited control). Results were expressed as residual growth (% of uninhibited control). Enhancement of minocycline or linezolid activity caused reduced residual growth.

Structure (SMILES) | activity at 25 µM
CC(C)COc1ccc(/C=C/c2ccc(Br)cc2Cl)cc1CNCC1CCNC1 (centres unmarked) [Example 397] | ≤ 10%
N[C@@H]1CN[C@@H](CNCc2cccc(OCc3ccc(Cl)cc3Br)c2)C1 [Example 172] | ≤ 10%
OCc1cc(CNCC2CNC2)cc(OCc2ccc(Cl)cc2Br)c1 [Example 128] | ≤ 10%
Clc1ccc(-c2ccc(CNCC3CNC3)cc2)cc1 [Example 25] | ≤ 10%
C=CCOc1cc(/C=C/c2ccc(C#N)cc2C(F)(F)F)cc(CNCC2CNC2)c1 [Example 310] | ≤ 10%
C=CCOc1ccc(OCCCNCC2CCNC2)c(/C=C/c2ccc(Cl)cc2Br)c1 (centres unmarked) [Example 213] | ≤ 10%
O=c1[nH]nc(COc2cc(/C=C/c3ccc(Cl)cc3Br)cc(CNCC3CCNC3)c2)o1 (centres unmarked) [Example 381] | ≤ 10%
CC(C)c1cc(CNCC2CNC2)cc(OCc2ccc(Cl)cc2Br)c1 [Example 224] | ≤ 10%
CC(C)(C)c1ccc(COc2ccc(CNCC3CCNC3)cc2)cc1 (centres unmarked) [Example 215] | ≤ 10%
CC(C)(C)c1ccc(/C=C\c2cccc(CNCC3CCNC3)c2)cc1 (centres unmarked) [Example 236, 1-[3-[(Z)-2-(4-tert-butylphenyl)vinyl]phenyl]-N-(pyrrolidin-3-ylmethyl)methanamine] | ≤ 10%
Clc1ccc(/C=C/c2cccc(CNCC3CNC3)c2)c(Br)c1 [Example 61] | ≤ 10%
C=CCOc1cc(/C=C/c2ccc(Cl)cc2Br)cc(C(=O)N(CC2CNC2)CC2CNC2)c1 [Example 456] | ≤ 10%
C=CCOc1cc(/C=C/c2nc(C(F)(F)F)cs2)cc(CNCC2CNC2)c1 [Example 348] | ≤ 10%
C=CCOc1cc(/C=C/c2ccc(Cl)cc2Br)cc(C(=O)NCCNCC2CNC2)c1 [Example 451] | ≤ 10%
O=Cc1cc(CNCC2CNC2)cc(OCc2ccc(Cl)cc2Br)c1 [Example 127] | ≤ 10%
CC(C)(C)c1ccc(COc2cc(Cl)cc(CNCC3CNC3)c2)cc1 [Example 228] | ≤ 10%
Clc1ccc(COc2cccc(CNCC3CCNCC3)c2)c(Br)c1 [Example 35] | ≤ 10%
Brc1ccccc1COc1ccc(CNC2CCNCC2)cc1 [Example 71] | ≤ 10%
CC(C)COc1cc(/C=C/c2ccncc2)cc(CNCC2CCNC2)c1 (centres unmarked) [Example 334] | ≤ 10%
Clc1ccc(OCc2ccc(Br)c(OCCCNCC3CNC3)c2)c(Br)c1 [Example 126] | ≤ 10%
Clc1ccc(OCc2cccc(CCCNCC3CNC3)c2)c(Br)c1 [Example 73] | ≤ 10%
CC(C)(C)c1ccc(/C=C/c2cccc(CNC3CCNCC3)c2)cc1 [Example 240] | ≤ 10%
C=CCOc1cc(CNCC2CCNC2)cc(CNS(=O)(=O)c2ccc(C(C)(C)C)cc2)c1 (centres unmarked) [Example 364] | ≤ 10%

Structure (SMILES) | activity at 25 µM
C=CCOc1cc(/C=C/c2cncc(C#N)c2)cc(CNCC2CCNC2)c1 (centres unmarked) [Example 325] | ≤ 10%
Clc1ccc(/C=C/c2cc(CNCC3CCNC3)cc(OCCc3ccncc3)c2)c(Br)c1 (centres unmarked) [Example 254] | ≤ 10%
CC(C)(C)c1ccc(/C=C/c2cccc(CNCC3CCNC3)c2)cc1 (centres unmarked) [Example 233] | ≤ 10%
CC(C)(c1ccccc1)c1ccc(CNCC2CNC2)cc1 [Example 45] | ≤ 10%
c1ccc(-c2cccc(COc3cccc(CNCC4CNC4)c3)c2)cc1 [Example 94] | ≤ 10%
C=CCOc1cc(/C=C/c2ccccn2)cc(CNCC2CNC2)c1 [Example 336] | ≤ 10%
Clc1ccc(-c2ccc(CNCC3CNC3)cc2)c(Br)c1 [Example 68, N-(azetidin-3-ylmethyl)-1-[4-(2-bromo-4-chloro-phenyl)phenyl]methanamine] | ≤ 10%
C=CCOc1cc(CNCC2CCNC2)cc(C(=O)NCc2ccc(Cl)cc2Br)c1 (centres unmarked) [Example 380] | ≤ 10%
COc1cc(C#N)ccc1COc1cc(CNCC2CCNC2)cc(OCC(C)C)c1 (centres unmarked) [Example 266] | ≤ 10%
C=CCOc1cc(/C=C/c2nc(C3CC3)cs2)cc(CNCC2CNC2)c1 [Example 356] | ≤ 10%
Clc1ccc(Oc2ccc(CNCC3CNC3)cc2)c(Br)c1 [Example 81] | ≤ 10%
Clc1ccc(COc2cccc(CCCNCC3CNC3)c2)c(Br)c1 [Example 111] | ≤ 10%
CC(C)(c1ccccc1)c1ccc(OCCNCC2CCNCC2)cc1 [Example 39] | ≤ 10%
C=CCOc1cc(/C=C/c2ccc(C#N)cc2C(F)(F)F)cc(CNCC2CCNC2)c1 (centres unmarked) [Example 313] | ≤ 10%
CC(C)COc1cc(CNCC2CCNC2)cc(OCc2ccc(C(F)(F)F)nc2)c1 (centres unmarked) [Example 291] | ≤ 10%
C[N+]1(C)CC(OCCOc2cc(CNCC3CCNC3)cc(OCc3ccc(Cl)cc3Br)c2)CC1C(=O)O (centres unmarked) [Example 247] | ≤ 10%
Clc1ccc(COc2ccccc2CCCNCC2CCNC2)c(Br)c1 (centres unmarked) [Example 114] | ≤ 10%
CC(C)(C)c1ccc(S(=O)(=O)Nc2ccc(CNCC3CCNC3)cc2OCCc2c[nH]cn2)cc1 (centres unmarked) [Example 399, 4-tert-butyl-N-[2-[2-(1H-imidazol-4-yl)ethoxy]-4-[(pyrrolidin-3-ylmethylamino)methyl]phenyl]benzenesulfonamide] | ≤ 10%
C=CCOc1cc(/C=C/c2c(C#N)cccc2C(F)(F)F)cc(CNCC2CNC2)c1 [Example 328] | ≤ 10%
Clc1ccc(OCc2cccc(CNC3CCNCC3)c2)c(Br)c1 [Example 53] | ≤ 10%
CC(C)COc1cc(CNCC2CCNC2)cc(OCc2ccc(C(F)(F)F)cc2C(F)(F)F)c1 (centres unmarked) [Example 265] | ≤ 10%
C=CCOc1cc(/C=C/c2ccc(Cl)cc2Br)cc(C[N+](C)(C)CC2CCNC2)c1 (centres unmarked) [Example 396] | ≤ 10%
CC(C)(C)c1ccc(/C=C\c2cccc(CNCC3CNC3)c2)cc1 [Example 237] | ≤ 10%

Structure (SMILES) | activity at 25 µM
CC(C)COc1ccc(OCc2ccc(Cl)cc2Br)cc1CNCC1CNC1 [Example 422] | ≤ 10%
C=CCOc1cc(/C=C/c2ccsc2)cc(CNCC2CNC2)c1 [Example 318] | ≤ 10%
Clc1ccc(COc2ccc(CCCNCC3CCNC3)cc2)c(Br)c1 (centres unmarked) [Example 117] | ≤ 10%
CC(C)(C)c1ccc(/C=C\c2cccc(CNC3CCNCC3)c2)cc1 [Example 235] | ≤ 10%
Clc1ccc(COc2cccc(CNCC3CCNC3)c2)c(Cl)c1 (centres unmarked) [Example 176] | ≤ 10%
Clc1ccc(Oc2cccc(CNCC3CCNC3)c2)c(Br)c1 (centres unmarked) [Example 88, 1-[3-(2-bromo-4-chloro-phenoxy)phenyl]-N-(pyrrolidin-3-ylmethyl)methanamine] | ≤ 10%
Clc1ccc(/C=C/c2ccccc2OCCCNCC2CNC2)c(Br)c1 [Example 200] | ≤ 10%
C=CCOc1cc(CNCC2CNC2)cc(OCc2ccc(Cl)cc2Br)c1 [Example 106] | ≤ 10%
Clc1ccc(/C=C/c2cc(Cl)ccc2OCCNCC2CCNC2)c(Br)c1 (centres unmarked) [Example 210] | ≤ 10%
Clc1ccc(COc2cc(CNCC3CNC3)cc(OCCc3ccncc3)c2)c(Br)c1 [Example 256] | ≤ 10%
Clc1cc(CNCC2CNC2)cc(OCc2ccc(Cl)cc2Br)c1 [Example 37, N-(azetidin-3-ylmethyl)-1-[3-[(2-bromo-4-chloro-phenyl)methoxy]-5-chloro-phenyl]methanamine] | ≤ 10%
Clc1ccc(/C=C/c2ccc(Cl)cc2OCCCNCC2CCNC2)c(Br)c1 (centres unmarked) [Example 185] | ≤ 10%
NC(=O)CCOc1cc(/C=C/c2ccc(Cl)cc2Br)cc(CNCC2CCNC2)c1 (centres unmarked) [Example 390] | ≤ 10%
FC(F)(F)c1cc(Cl)ccc1COc1cccc(CNCC2CCNC2)c1 (centres unmarked) [Example 132] | ≤ 10%
Clc1ccc(COc2cccc(CNCC3CCNC3)c2)c(Br)c1 (centres unmarked) [Example 30] | ≤ 10%
CC(C)COc1cc(/C=C/c2ccc(Cl)cc2Br)cc(CNCC2CNC2)c1 [Example 190] | ≤ 10%
CC(C)COc1cc(CNCC2CCNC2)cc(OCc2ccc(Cl)nc2)c1 (centres unmarked) [Example 269] | ≤ 10%
C=CCOc1ccc(/C=C/c2ccc(Br)cc2Cl)cc1CNCC1CCNC1 (centres unmarked) [Example 407] | ≤ 10%
Clc1ccc(COc2ccc(CNCC3CCNCC3)cc2)cc1Cl [Example 67] | ≤ 10%
CC(C)(C)c1ccc(COc2cc(CNCC3CNC3)cc(C(C)(C)C)c2)cc1 [Example 295] | ≤ 10%
CC(C)COc1ccc(/C=C/c2ccc(Cl)cc2Br)cc1CNCC1CCNC1 (centres unmarked) [Example 431] | ≤ 10%
Brc1ccccc1COc1cccc(CNCC2CNC2)c1 [Example 41] | ≤ 10%

Same assay, conditions: Escherichia coli, ATCC25922, compound at 50 μM; minocycline 0.25 μg/mL; OD625 23 h minus 1 h; read-out: residual growth of E. coli ATCC25922 (% of uninhibited control) with minocycline

Structure (SMILES) | activity at 50 µM
O=C(NCc1cc(CNCC2CCNC2)cc(OCCc2c[nH]cn2)c1)c1ccc(Cl)cc1Br (centres unmarked) [Example 393] | ≤ 50%
C=CCOc1cc(CNCC2CCNC2)cc(OCCc2ccccn2)c1 (centres unmarked) [Example 410] | ≤ 50%
CC(C)COc1cc(CNCC2CCNC2)cc(NC(=O)c2cccnc2)c1 (centres unmarked) [Example 485, N-[3-isobutoxy-5-[(pyrrolidin-3-ylmethylamino)methyl]phenyl]pyridine-3-carboxamide] | ≤ 50%

Source: patent US10464896B2, “Efflux-pump inhibitors and therapeutic uses thereof” (Basilea Pharmaceutica International AG, priority 2015, dated 2019)
